Experimental data: patent US20240207253A1, “Inhibitors of CDR1 for Reversal of Azole Drug Resistance in Fungal Infections” (UNM RAINFOREST INNOVATIONS, priority 2021, published 2024)
One block for each compound: values may come before it.

Assays:
[1] = tested on: C. albicans strain 5674; assay: Adenylate kinase (AK) release assay on assay supernatant; format: cell-based; conditions: caspofungin 50 ng/ml, positive control
Protocol: In addition to the output from the dose-response assays, we included an experimental step designed to identify compounds with fungicidal potential. Specifically, the inventors used the assay supernatant to interrogate for the presence of adenylate kinase (AK), an enzyme that is released from the cells when the cell wall or plasma membrane integrity is compromised. Low-dose caspofungin (50 ng/ml), an echinocandin known for its antifungal property due to disruption of the cell wall, was used as a positive control.

[2] = tested on: C. glabrata AR Bank #0314; assay: CLSI microbroth dilution checkerboard assay with fluconazole; format: cell-based; conditions: Nakaseomyces glabratus; fluconazole alone
Protocol: (§1) Overexpression of Cdr1p has been implicated in azole resistance in many fluconazole-resistant fungal pathogens. […] The inventors used the CLSI microbroth dilution method of antifungal susceptibility testing in a checkerboard assay format, where serial 2-fold dilutions of FLC (from 64 μg/ml) were tested in combination with serial 2-fold dilutions of a candidate hit compound (from 50 μg/ml). […] The data from three biological replicates was next used to assess synergy between each compound of interest and FLC. For these purposes, the inventors used the program SynScreen, which extrapolates non-linear fits of dose-response data to determine synergy using the Bliss independence and Loewe additivity analysis models. […] The Bliss Beta coefficient that the program calculates for all combinations further describes potential synergism (if >1), antagonism (if <1), or an additive effect (equal to 1).
(§2) For the purposes of reporting the effect of the test compound on FLC potentiation, the inventors excluded from analyses rows of combinations where TPIML compound alone affects yeast growth. C. krusei are intrinsically resistant to azoles and is predominantly due to a significant reduction of inhibition of the target, cytochrome P450 lanosterol 14α-demethylase, though the role of increased expression of the CaCdr1p homolog in resistance has also been described.

[3] = tested on: C. krusei reference strain, ATCC 6258; assay: as above; format: cell-based; conditions: Pichia kudriavzevii, ATCC6258; fluconazole alone
Protocol: as §1, §2

[4] = tested on: C. parapsilosis AR Bank #0337; assay: as above; format: cell-based; conditions: Lodderomyces parapsilosis; fluconazole alone
Protocol: as §1, §2

[5] = tested on: Cdr1p-GFP; assay: Cdr1p-GFP whole cell fluorescence-based flow cytometry assay (primary screen and dose response); parameters: species or system C. albicans; conditions: 10 μM, positive control, isolate 5674 CDR1-GFP
Source text: Utilizing the novel approach of inhibition of CDR1 (Cdr1p) expression, initial experiments were directed to screening libraries of small molecules using a high-throughput whole cell fluorescence-based flow cytometry assay to identify agents that inhibit expression of CDR1-GFP in an azole-resistant C. albicans strain.
Each sample in the scaffold ranking screen contains only mixtures of compounds with the shared core scaffold. All compounds in a specific mixture are represented in approximately equal molar concentrations. The inventors performed the screen using the C. albicans azole-resistant, clinical isolate 5674, which was modified to carry a CDR1 allele tagged with GFP-encoding sequence. Modulation of Cdr1p-GFP levels in response to scaffold mixtures was assessed relative to basal levels (Response Ratio), from which scaffolds were ranked. […] The inventors used tacrolimus at 10 μM concentration as positive control in all screening assays.
The assay readout, GFP fluorescence levels as detected by a flow cytometer, is directly related to the levels of Cdr1p of the cell. Thus, flow cytometry data from each screen provides direct evidence that Cdr1p is modulated by hit compounds. […] False-positive hits were identified in follow-up dose-response assays where the effect of serial dilutions of each compound on Cdr1p-GFP levels was assessed.

Compound: CC[C@H](C)C[C@H](C)CCCCCCCCC(=O)N[C@H]1C[C@@H](O)[C@@H](NCCN)NC(=O)[C@@H]2[C@@H](O)CCN2C(=O)[C@H]([C@H](O)CCN)NC(=O)[C@H]([C@H](O)[C@@H](O)c2ccc(O)cc2)NC(=O)[C@@H]2C[C@@H](O)CN2C(=O)[C@H]([C@@H](C)O)NC1=O [caspofungin]
- AK fold-increase [1]: 27

- MIC50 [2]: 64 µg/mL
- MIC50 [3]: 8 µg/mL
- MIC50 [4]: 64 µg/mL
Compound: OC(Cn1cncn1)(Cn1cncn1)c1ccc(F)cc1F [fluconazole]

Compound: C=CC[C@@H]1/C=C(\C)C[C@H](C)C[C@H](OC)[C@H]2O[C@@](O)(C(=O)C(=O)N3CCCC[C@H]3C(=O)O[C@H](/C(C)=C/[C@@H]3CC[C@@H](O)[C@H](OC)C3)[C@H](C)[C@@H](O)CC1=O)[C@H](C)C[C@@H]2OC [tacrolimus]
- Response Ratio (Cdr1p-GFP levels relative to basal levels) [5]: 0.8
